Ends that are not written are not given here.
Experiments:
[1] = system: P. aeruginosa; conditions: P. aeruginosa (H187); Table 6
Procedure: FICs are performed by checkerboard titrations of peptides in one dimension of a microtiter plate, and of antibiotics in the other dimension, for example. The FIC is calculated by looking at the impact of one antibiotic on the MIC of the other and vice versa. […] Preferably, an FIC of less than 0.5 is obtained for synergism. As used herein, FIC can be determined as follows: [formula]
(§1) Briefly, cells were grown overnight at 37° C. in LB-S (Luria broth without any salt supplement) and diluted one in 10,000 in the same medium to give concentrations of about 10^4 to 10^5 CFU/ml. The broth dilutions were set up in a 96 well microtiter plate by putting 200 μl of LB-S containing the initial concentration of antibiotic or compound in column 1 and 100 μl of the same medium in columns 2-12. The compounds were diluted by taking 100 μl of broth from column 1 and mixing it with column 2, resulting in a one in two dilution. This was continued to column 10. Finally, 10 μl of bacteria were pipetted into columns 1-11, and the plates incubated overnight at 37° C. The next day the plates were scored for growth in the wells, and the MIC determined.

[2] = system: E. coli; assay: MIC, broth dilution in LB-S; type: cell-based; conditions: E. coli (UB 1005); Table 6
Procedure: The biological activity of the peptides can be determined by standard methods known to those of skill in the art, such as “minimal inhibitory concentration (MIC)” assay described in the present examples, whereby the lowest concentration at which no change in OD is observed for a given period of time is recorded as MIC. Alternatively, “fractional inhibitory concentration (FIC)” is also useful for determination of synergy between the peptides of the invention, or the peptides in combination with known antibiotics. FICs are performed by checkerboard titrations of peptides in one dimension of a microtiter plate, and of antibiotics in the other dimension, for example. The FIC is calculated by looking at the impact of one antibiotic on the MIC of the other and vice versa. […] Preferably, an FIC of less than 0.5 is obtained for synergism. As used herein, FIC can be determined as follows: [formula]
as §1

[3] = system: Red Blood Cells; assay: Red blood cell lysis; type: cell-based; conditions: concentration lysing Red Blood Cells

CC[C@H](C)[C@H](NC(=O)[C@H](CC(C)C)NC(=O)[C@H](C)NC(=O)[C@@H]1CCCN1C(=O)[C@H](CC(C)C)NC(=O)CNC(=O)[C@@H](NC(=O)[C@@H](NC(=O)[C@H](CC(C)C)NC(=O)[C@@H](NC(=O)[C@H](CCCCN)NC(=O)[C@H](CCCCN)NC(=O)[C@@H](NC(=O)[C@H](C)NC(=O)[C@@H](NC(=O)[C@@H](NC(=O)[C@H](CC(C)C)NC(=O)[C@H](CCCCN)NC(=O)[C@H](CCCCN)NC(=O)[C@@H](NC(=O)[C@H](Cc1ccccc1)NC(=O)[C@H](CCC(=O)O)NC(=O)[C@H](CCCCN)NC(=O)[C@H](Cc1c[nH]c2ccccc12)NC(=O)[C@@H](N)CCCCN)[C@@H](C)CC)[C@@H](C)O)[C@@H](C)O)C(C)C)C(C)C)[C@@H](C)O)[C@@H](C)O)C(=O)N[C@@H](CO)C(=O)O [compound 492]
MIC P. aeruginosa (H187) [1]: 4.8 µg/mL | MIC E. coli (UB 1005) [2]: 2.4 µg/mL | RBC Lysis [3]: >55 µg/mL

KWKSFIKNLEKVLKPGGLLSNIVTSL [compound 490]
MIC P. aeruginosa (H187) [1]: 8 µg/mL | MIC E. coli (UB 1005) [2]: 1 µg/mL | RBC Lysis [3]: >55 µg/mL

KWKSFIKNLEKVLKKGPILANLVSIV [compound 491]
MIC P. aeruginosa (H187) [1]: 8 µg/mL | MIC E. coli (UB 1005) [2]: 2 µg/mL | RBC Lysis [3]: >55 µg/mL

KWKKFIKELQKVLAPGGLLSNIVTSL [compound 493]
MIC P. aeruginosa (H187) [1]: 10 µg/mL | MIC E. coli (UB 1005) [2]: 5 µg/mL | RBC Lysis [3]: >55 µg/mL

— patent US6906035B2, “Antimicrobial cationic peptides” (priority 1995, dated 2005)
